Values joined by “and” are separate entries in the source; they are usually repeats but may differ in a detail not shown here. Equal entries are not always repeated.
Assays:
[1] = system: PP2A; assay: PP2A phosphatase activity; assay type: biochemical, murine; settings: PP2A immunoprecipitated from FL5.12 cell lysates, phosphopeptide dephosphorylation
From the text: Furthermore, many embodiments of the invention are directed to azacyclic constrained sphingolipid-like molecules inducing internalization of nutrient transporters via a mechanism that activates PP2A. […] Thus, activation of PP2A is very peculiar to certain sphingolipid structures. Activation of PP2A by FTY720 and SH-BC-893 also stimulated vacuolation, and as the PP2A inhibitors calyculin A and SV40 small t antigen, each blocked this effect (FIG. 59C). Of note, YM201636-induced vacuolation was unaffected by PP2A inhibition (FIG. 60B). In addition, inhibiting PP2A restored PIKfyve to the proper location within vacuoles in cells treated with FTY720 or SH-BC-893 (FIG. 57D).
PP2A phosphatase activity. PP2A activity was measured using a PP2A immunoprecipitation phosphatase assay kit (EMD Millipore). Briefly, the catalytic subunit of PP2A was immunoprecipitated from FL5.12 cell lysates with 4 μg anti-PP2A, C subunit. After four washes, the activity of immunoprecipitated PP2A was assessed by dephosphorylation of the phosphopeptide according to the manufacturer's instructions in the presence or absence of C2-ceramide, dihydro-C2-ceramide, FTY720, SH-BC-893, or calyculinA.

[2] = system: CD98 (4F2hc, SLC3A2); assay: Surface CD98 nutrient transporter down-regulation by flow cytometry; assay type: cell-based, murine; settings: FL5.12 cells, surface CD98 at 3 h, flow cytometry, mean ± SEM, n ≥3
From the text: In an exemplified study, nutrient transporter down-regulation was monitored by quantifying surface levels of the amino acid transporter-associated protein, CD98, by flow cytometry. Vacuolation was scored in a range from 0 to […], as determined by a vacuolation assay described in greater detail in the Materials and Methods section below.
Cell culture studies: FL5.12 cells (murine hematopoetic cells originally obtained from Craig Thompson, Memorial Sloan Kettering Cancer Center) were maintained at 0.1-0.5 million/ml in RPMI 1640 (Mediatech) supplemented with 10% fetal calf serum (FCS, Sigma-Aldrich), 10 mM Hepes (Mediatech), 500 pg/ml recombinant IL-3 (cat #575502, Biolegend), 55 μM β-mercaptoethanol (Sigma-Aldrich), 2 mM L-glutamine (Mediatech), and antibiotics. Cells were screened for Mycoplasma every 3 months using the Look-Out Mycoplasma PCR Detection kit (cat #MP0035, Sigma).
Nutrient transporter expression: Surface CD98 (4F2hc, SLC3A2) expression was measured at 3 h using phycoerythrin (PE)-conjugated rat anti-mouse CD98 antibody (Biolegend, cat #128208); analysis was restricted to viable cells. PE conjugated Rat IgG2a, k (cat #400508, Biolegend) was used as an isotype control. For staining, 200,000 cells were pelleted, re-suspended in 100 μl FACS block (PBS with 10% FCS and 0.05% NaN3) containing 0.25 μL anti-CD98 antibody, incubated on ice for 30 min, washed twice with 1 ml FACS wash (PBS containing 2% FCS and 0.05% NaN3), and analyzed on a BD LSR II flow cytometer. Data was processed with FlowJo software (Treestar).

[3] = Lymphocyte sequestration in mice; assay type: in vivo, C57BL6 mice; settings: 10 mg/kg intraperitoneally, blood after 12 h, compared to saline
From the text: In more exemplary embodiments, compounds 5 and 5-P were further examined for their ability to activate multiple S1P receptors in vivo. In particular, mouse heart rate and lymphocyte sequestration were examined. Mouse heart rate decreases causing bradycardia when S1P receptor 3 is activated while in humans this effect may be mediated by S1P receptor 1. In both mice and humans, lymphocytes are sequestered when the S1P receptor 1 is activated.
Lymphocyte sequestration: Female 8-24 week old C57BL6 mice are injected intraperitoneally with vehicle (0.9% saline or 20% acidified DMSO in 0.9% saline), 10 mg/kg FTY720, FTY720-phosphate, 5, or 5-P. After 12 h, blood is collected from the retro-orbital sinus under ketamine/xylazine anesthesia. 10 μL of whole blood is added to 190 μL of ACK red blood cell lysis buffer, incubated at room temperature for 3-5 minutes […], and the white blood cells recovered by centrifugation. Nucleated cells (Hoechst33342 positive) are counted using a hemocytometer to obtain the white blood cell count. Separately, 50 μL of whole blood is added to 1 mL of ACK red blood cell lysis buffer and incubated for 3-5 minutes at room temperature. Cells are washed with FACS wash (2% FCS in PBS with 0.05% NaN3) and red blood cell lysis repeated. Tubes are decanted and resuspended in 100 μL of FACS block (10% FCS in PBS with 0.05% NaN3) with directly conjugated antibodies recognizing B220, CD4, or CD8 (all from Biolegend, San Diego) for 30 min on ice. Cells are analyzed on a BD LSR II flow cytometer; the analysis is restricted to live cells (DAPI negative). These experiments are performed in accordance with all national or local guidelines and regulations and are approved by the UCI Institutional Animal Care and Use Committee.

[4] = system: luciferase-expressing SW620 xenografts; assay: Luciferase-expressing SW620 xenografts treated with SH-BC-893; assay type: in vivo, mice; settings: for SW620 tumors by bioluminescence imaging, caliper measurements and tumor mass at sacrifice: luciferase-expressing SW620 xenografts in mice, SH-BC-893 20 mg/kg i.p.
Method: In many embodiments, exemplary experimentation was carried out to determine whether azacyclic constrained sphingolipid-lipid molecules inhibited neoplastic growth in vivo. To carry out this experimentation, luciferase-expressing SW620 xenografts were generated in mice.
In vivo studies. Experiments conducted in mice were performed in accordance with the Institutional Animal Care and Use Committee of University of California, Irvine following a power analysis conducted in consultation with the Biostatistics Shared Resource of Chao Family Comprehensive Cancer Center at UCI. Xenografts were produced by injecting 5 million cells subcutaneously in the flank of 10-16 week-old male or female NSG mice. Prostate isografts were produced in the same manner but in male 6-8 wk old C57BL/6 mice. Once tumors reached 100 mm^3, SH-BC-893 was administered by intraperitoneal (i.p.) injection or oral gavage as indicated. Tumor volume was calculated using the formula, volume (mm^3)=length [mm]×(width [mm])^2×0.52; BLI was measured using an IVIS imaging system (Xenogen). To generate pDKO mice on the C57BL6 background, Pten^flox mice (stock No. 0045597) and p53^flox mice (stock No. 008462) were obtained from the Jackson Laboratory and PB-Cre4 mice (strain #01XF5) were obtained from the NCI-Frederick Mouse Repository. Age-matched cohorts of pDKO males were generated by in vitro fertilization executed with the assistance of the Transgenic Mouse Facility at UC Irvine. Treatment was begun at 6-7 wks of age. […] Tumor samples were processed and imaged by the Pathology Research Services Core Facility at UC Irvine. Blood chemistry was analyzed by IDEXX BioResearch and complete blood counts were performed using a Hemavet hematology system.

| SMILES | PP2A activation [1] | % CD98 down-regulation ([2]; listed as 104) | lymphocyte sequestration [3] | body weight of treated mice ([4]; SW620 xenograft mice) | SW620 tumors by bioluminescence imaging, caliper measurements and tumor mass at sacrifice [4] | % CD98 down-regulation [2] |
| --- | --- | --- | --- | --- | --- | --- |
| CCCCCCCCc1ccc([C@H]2CCN[C@@H]2CO)cc1.Cl [Compound 5, (2S,3R)-2-(hydroxymethyl)-3-(4-octylphenyl)Pyrrolidinium chloride] | activating PP2A | 54% and 54 ± 1% | no significant effect | Mild weight loss | reduced to a similar degree | – |
| CCCCCCCCc1ccc(CCC(N)(CO)CO)cc1.Cl [FTY720, 2-Amino-2-[2-(4-octylphenyl)ethyl]propane 1,3-diol hydrochloride, reference compound] | activating PP2A | – | significantly sequestered lymphocytes | – | reduced to a similar degree | 68 ± 3% |
